Holding throughout (assay type): cell-based
Assay [1] relates to HTT mRNA alternative junction (AJ). The assay can be described thus: Splicing RT-qPCR assay, increase of HTT alternative junction (AJ) mRNA. The note with it: A673 or K562 cells, 24 hours compound treatment, concentration having 50% response in AJ increase. The procedure:
(§1) Compounds described herein were used to modulate RNA transcript abundance in cells. The expression of a target mRNA was measured by detecting the formation of an exon-exon junction in the canonical transcript (CJ). A compound mediated exon-inclusion event was detected by observing an increase in formation of a new junction with an alternative exon (AJ). Real-time qPCR assays were used to detect these splicing switches and interrogate the potency of various compounds towards different target genes. A high-throughput real time quantitative PCR (RT-qPCR) assay was developed to measure these two isoforms of the mRNA (CJ and AJ) for an exemplary gene, HTT, together with a control housekeeping gene, GAPDH or GUSB or PPIA, used for normalization. Briefly, the A673 or K562 cell line was treated with various compounds described herein (e.g., compounds of Formula (I)). After treatment, the levels of the HTT mRNA targets were determined from each sample of cell lysate by cDNA synthesis followed by qPCR.
(§2) The A673 cell line was cultured in DMEM with 10% FBS. Cells were diluted with full growth media and plated in a 96-well plate (15,000 cells in 100 ul media per well). The plate was incubated at 37° C. with 5% CO2 for 24 hours to allow cells to adhere. An 11-point 3-fold serial dilution of the compounds was made in DMSO then diluted in media in an intermediate plate. Compounds were transferred from the intermediate plate to the cell plate with the top dose at a final concentration of 10 uM in the well. Final DMSO concentration was kept at or below 0.25%. The cell plate was returned to the incubator at 37° C. with 5% CO2 for an additional 24 hours.
(§3) The K562 cell line was cultured in IMDM with 10% FBS. For K562, cells were diluted with full growth media and plated in either a 96-well plate (50,000 cells in 50 uL media per well) or a 384-well plate (8,000-40,000 cells in 45 uL media per well). An 11-point 3-fold serial dilution of the compounds were made in DMSO then diluted in media in an intermediate plate. Compound was transferred from the intermediate plate to the cell plate with the top dose at a final concentration of 10 uM in the well. Final DMSO concentration was kept at or below 0.25%. Final volume was 100 uL for 96-well plate and 50 uL for 384-well plate. The cell plate was then placed in an incubator at 37° C. with 5% CO2 for 24 hours.
(§4) The cells were then gently washed with 50 uL-100 uL cold PBS before proceeding to addition of lysis buffer. 30 uL-50 uL of room temperature lysis buffer with DNAse I (and optionally RNAsin) was added to each well. Cells were shaken/mixed thoroughly at room temperature for 5-10 minutes for lysis to take place and then 3 uL-5 uL of room temperature stop solution was added and wells were shaken/mixed again. After 2-5 minutes, the cell lysate plate was transferred to ice for RT-qPCR reaction setup. The lysates could also be frozen at −80° C. for later use.
(§5) In some cases, a direct lysis buffer was used. An appropriate volume of 3× lysis buffer (10 mM Tris, 150 mM NaCl, 1.5%-2.5% Igepal and 0.1-1 U/uL RNAsin, pH 7.4) was directly added to either K562 or A673 cells in media and mixed by pipetting 3 times. The plates were then incubated at room temperature with shaking/rocking for 20-50 minutes to allow for lysis to take place. After this time, the cell lysate plate was transferred to ice to set up for the RT-qPCR reactions. The lysates could also be frozen at −80° C. for later use.
(§6) To set up 10 uL RT-qPCR reactions, cell lysates were transferred to 384-well qPCR plates containing the master mix according to the table below. The plates were sealed, gently vortexed, and spun down before the run. The volumes were adjusted accordingly in some instances where the reaction was carried in 20 uL. The table below summarizes the components of the RT-qPCR reactions:
(§7) The RT-qPCR reaction was performed using a QuantStudio (ThermoFisher) under the following fast cycling conditions. […]

Assay [2] deals with HTT mRNA canonical junction (CJ). Nature of the assay: Splicing RT-qPCR assay, decrease of HTT canonical junction (CJ) mRNA. The note with it: A673 or K562 cells, 24 hours compound treatment, concentration having 50% response in CJ decrease. The procedure:
as §1, §2, §3, §4, §5, §6, §7
In general terms: Quantitative PCR measures a nucleic acid by following its amplification.

Assay [3] relates to HTT CJ mRNA. The assay can be described thus: Gene panel canonical junction qPCR assay, HTT. The following applies: protocol of Example 42, read-out: HTT IC50 (decrease in CJ mRNA levels). The procedure:
as §1, §2, §3
(§8) The data analysis was performed by first determining the ACt vs the housekeeper gene. This ACt was then normalized against the DMSO control (AACt) and converted to RQ (relative quantification) using the 2^(−ΔΔCt) equation. The RQ were then converted to a percentage response by arbitrarily setting an assay window of 3.5 ΔCt for HTT-CJ and an assay window of 9 ΔCt for HTT-AJ. […] The percentage response was then fitted to the 4 parametric logistic equation to evaluate the concentration dependence of compound treatment. The increase in AJ mRNA is reported as AC50 (compound concentration having 50% response in AJ increase) while the decrease in CJ mRNA levels is reported as IC50 (compound concentration having 50% response in CJ decrease).
(§9) Additional studies were carried out for a larger panel of genes using the protocol provided above. The junction between flanking upstream and downstream exons was used to design canonical junction qPCR assays. At least one of the forward primer, reverse primer or the CY5-labeled 5′ nuclease probe (with 3′ quencher such as ZEN/Iowa Black FQ) was designed to overlap with the exon junction to capture the CJ mRNA transcript. BLAST was used to confirm the specificity of the probeset and parameters such as melting temperature, GC content, amplicon size, and primer dimer formation are considered during their design. Data for the decrease in CJ mRNA levels for three exemplary genes (HTT, SMN2, and Target C) analyzed in this panel are reported as IC50 (compound concentration having 50% response in CJ decrease).

In assay [4] the test system is SMN2 CJ mRNA. The assay can be described thus: Gene panel canonical junction qPCR assay, SMN2. The note with it: protocol of Example 42, read-out: SMN2 IC50 (decrease in CJ mRNA levels). The procedure: as §1, §2, §3, §8, §9
Assay [5] concerns Target C CJ mRNA. Nature of the assay: Gene panel canonical junction qPCR assay, Target C. The following applies: protocol of Example 42, read-out: Target C IC50 (decrease in CJ mRNA levels). As for the experimental part:
as §1, §2, §3, §8, §9

Some results are limits rather than exact numbers.

One may read the AC50 as the concentration giving half of the maximal activity seen. A higher AC50 goes with activity only at high concentration. By IC50 is commonly meant the concentration at which inhibition is half-maximal. Consider `Cc1cn2cc(NC(=O)c3ccc(N4CCC(N5CCCC5)C4)c4cc(C)oc34)cc(F)c2n1` (stereo not drawn) [Compound 204, 4-[[1,3′-bipyrrolidin]-1′-yl]-N-[8-fluoro-2-methylimidazo[1,2-a]pyridin-6-yl]-2-methyl-1-benzofuran-7-carboxamide], for which the AC50 in assay [1] and in assay [2] was 1000 to 10000 nM throughout. The IC50 was 1000 to 10000 nM in assay [3], less than 100 nM in assay [4] and 1000 to 10000 nM in assay [5].
For the molecule `Cc1cn2cc(NC(=O)c3ccc(N4CC5(CNC5)C4)c4cc(C)oc34)cc(F)c2n1` [Compound 205], the AC50 in assay [1] was 1000 to 10000 nM; in assay [2] it was 100 to 1000 nM. Also, the IC50 in assay [3] was 100 to 1000 nM; in assay [4] it was less than 100 nM; in assay [5], 1000 to 10000 nM.
`Cc1cn2cc(NC(=O)c3ccc(N4CC5(CN(C)C5)C4)c4cc(C)oc34)cc(F)c2n1` [Compound 206]: the AC50 in assay [1] and in assay [2] was 1000 to 10000 nM each time. Further, the IC50 in assay [3] was 1000 to 10000 nM; in assay [4], less than 100 nM; in assay [5], more than 10000 nM.
In the case of `Cc1cn2cc(NC(=O)c3ccc(N4CCN(C)CC4)c4cn(C)nc34)cc(F)c2n1` [Compound 207], the AC50 in assay [1] and in assay [2] was 100 to 1000 nM in each case. Moreover, the IC50 was 100 to 1000 nM in assay [3], less than 100 nM in assay [4] and 1000 to 10000 nM in assay [5].
For `Cc1cn2cc(NC(=O)c3ccc(C4CCNCC4)c4cn(C)nc34)cc(F)c2n1` [Compound 208, N-[8-fluoro-2-methylimidazo[1,2-a]pyridin-6-yl]-2-methyl-4-(piperidin-4-yl)indazole-7-carboxamide], the AC50 in assay [1] and in assay [2] was 100 to 1000 nM throughout. Moreover, the figures for the 50% inhibitory concentration (IC50) in assay [3], in assay [4] and in assay [5] were 100 to 1000 nM, less than 100 nM and 1000 to 10000 nM, respectively.
On to `Cc1cn2cc(NC(=O)c3ccc(C4CCN(C)CC4)c4cn(C)nc34)cc(F)c2n1` [Compound 209, N-[8-fluoro-2-methylimidazo[1,2-a]pyridin-6-yl]-2-methyl-4-(1-methylpiperidin-4-yl)indazole-7-carboxamide], for which the AC50 in assay [1] and in assay [2] was 100 to 1000 nM each time. Also, the IC50 in assay [3] is 100 to 1000 nM; in assay [4], more than 10000 nM; in assay [5] it was 1000 to 10000 nM.
Turning to `CCN1CCC(c2ccc(C(=O)Nc3cc(F)c4nc(C)cn4c3)c3nn(C)cc23)CC1` [Compound 210, 4-(1-ethylpiperidin-4-yl)-N-[8-fluoro-2-methylimidazo[1,2-a]pyridin-6-yl]-2-methylindazole-7-carboxamide], the AC50 in assay [1] and in assay [2] was 100 to 1000 nM throughout. Also, the values for the IC50 in assay [3], in assay [4] and in assay [5] were 100 to 1000 nM, less than 100 nM and 1000 to 10000 nM, respectively.
For `Cc1cn2cc(NC(=O)c3ccc(C4C[C@@H](C)N[C@@H](C)C4)c4cn(C)nc34)cc(F)c2n1` (stereo partly drawn) [Compound 211, 4-[(cis-)-2,6-dimethylpiperidin-4-yl]-N-[8-fluoro-2-methylimidazo[1,2-a]pyridin-6-yl]-2-methylindazole-7-carboxamide trifluoroacetic acid], the AC50 in assay [1] and in assay [2] was 1000 to 10000 nM in each case. Besides, the results for the IC50 in assay [3], in assay [4] and in assay [5] were 1000 to 10000 nM, less than 100 nM and more than 10000 nM, respectively.
Consider `Cc1cn2cc(NC(=O)c3ccc(C4CC(C)(C)NC(C)(C)C4)c4cn(C)nc34)cc(F)c2n1` [Compound 212, N-[8-fluoro-2-methylimidazo[1,2-a]pyridin-6-yl]-2-methyl-4-(2,2,6,6-tetramethylpiperidin-4-yl)indazole-7-carboxamide], for which the half-maximal activity concentration (AC50) in assay [1] is more than 10000 nM; in assay [2], 1000 to 10000 nM. The IC50 was 1000 to 10000 nM in assay [3], 100 to 1000 nM in assay [4] and more than 10000 nM in assay [5].

The record behind these values is US20230365566A1, “HETEROCYCLIC AMIDES AND THEIR USE FOR MODULATING SPLICING” (REMIX THERAPEUTICS INC., priority 2020, published 2023).
